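Growth conditions: 96-well plates. Treatment: test compound, 48 hours, 5 concentrations. Analysis: linear interpolation between bracketing concentrations; unreached endpoints set to highest concentration. TGI: total growth inhibition.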
Key:
Assay in all cases: DTP human tumour cell line panel, 48 h
[1] = system: NCI/ADR-RES ovarian
[2] = system: HCT-116 colon
[3] = system: NCI-H522 lung
[4] = system: SN12C renal
[5] = system: LXFL 529 NSCLC
[6] = system: UACC-257 melanoma
[7] = system: RPMI-8226 leukemia
[8] = system: KM20L2 colon
[9] = system: SK-OV-3 ovarian
[10] = system: XF 498 CNS
[11] = system: MDA-N
[12] = system: NCI-H23 lung
[13] = system: HS 578T breast
[14] = system: UACC-62 melanoma
[15] = system: NCI-H460 lung
[16] = system: OVCAR-8 ovarian
[17] = system: A549 NSCLC
[18] = system: OVCAR-5 ovarian
[19] = system: OVCAR-3 ovarian
[20] = system: DU-145 prostate
[21] = system: RXF-631 renal
[22] = system: MOLT-4 leukemia
[23] = system: LOX IMVI melanoma
[24] = system: HCC-2998 colon
[25] = system: IGROV1 ovarian
[26] = system: HOP-62 NSCLC
[27] = system: SF-539 CNS
[28] = system: K-562 leukemia
[29] = system: COLO 205 colon
[30] = system: SF-295 CNS
[31] = system: SNB-75 CNS
[32] = system: ACHN renal
[33] = system: SNB-19 CNS
[34] = system: MCF7 breast
[35] = system: SW-620 colon
[36] = system: SK-MEL-5 melanoma
[37] = system: HL-60(TB) leukemia
[38] = system: U251 CNS
[39] = system: HCT-15 colon
[40] = system: SK-MEL-28 melanoma
[41] = system: CAKI-1 renal
[42] = system: MDA-MB-435
[43] = system: SNB-78 CNS
[44] = system: KM12 colon
[45] = system: HT29 colon
[46] = system: HOP-18 NSCLC
[47] = system: T-47D breast
[48] = system: A498 renal
[49] = system: UO-31 renal
[50] = system: MDA-MB-231 breast
[51] = system: TK-10 renal
[52] = system: EKVX NSCLC
[53] = system: HOP-92 NSCLC
[54] = system: MALME-3M melanoma
[55] = system: SR leukemia
[56] = system: SK-MEL-2 melanoma
[57] = system: 786-0 renal
[58] = system: SF-268 CNS
[59] = system: PC-3 prostate
[60] = system: M14 melanoma
[61] = system: CCRF-CEM leukemia
[62] = system: RXF 393 renal
[63] = system: NCI-H226 lung
[64] = system: DMS 273 small cell lung
[65] = system: DLD-1 colon
[66] = system: DMS 114 small cell lung
[67] = system: M19-MEL melanoma
[68] = system: OVCAR-4 ovarian

O=C(Nc1nc2ncn(CCOC(=O)c3ccccc3)c2c(=O)[nH]1)c1ccccc1
TGI [1]: > 100 µM | TGI [2]: > 100 µM | TGI [3]: 8.32 µM | TGI [4]: > 100 µM | TGI [5]: > 100 µM | TGI [6]: > 100 µM | TGI [7]: > 100 µM | TGI [8]: 83.3 µM | TGI [9]: > 79.9 µM | TGI [10]: 55.7 µM | TGI [11]: 7.89 µM | TGI [12]: > 100 µM | TGI [13]: 51.7 µM | TGI [14]: > 100 µM | TGI [15]: > 100 µM | TGI [16]: > 100 µM | TGI [17]: > 100 µM | TGI [18]: > 100 µM | TGI [19]: > 100 µM | TGI [20]: > 100 µM | TGI [21]: > 100 µM | TGI [22]: > 100 µM | TGI [23]: > 100 µM | TGI [24]: > 100 µM | TGI [25]: > 100 µM | TGI [26]: > 100 µM | TGI [27]: 65.2 µM | TGI [28]: > 100 µM | TGI [29]: 23.6 µM | TGI [30]: 54.2 µM | TGI [31]: > 71.7 µM | TGI [32]: > 100 µM | TGI [33]: > 100 µM | TGI [34]: > 100 µM | TGI [35]: > 100 µM | TGI [36]: > 100 µM | TGI [37]: > 24.6 µM | TGI [38]: > 64.8 µM | TGI [39]: > 100 µM | TGI [40]: > 100 µM | TGI [41]: > 100 µM | TGI [42]: 8.32 µM | TGI [43]: > 100 µM | TGI [44]: > 100 µM | TGI [45]: > 37.9 µM | TGI [46]: > 100 µM | TGI [47]: > 100 µM | TGI [48]: > 100 µM | TGI [49]: > 100 µM | TGI [50]: > 100 µM | TGI [51]: > 100 µM | TGI [52]: > 100 µM | TGI [53]: > 75.6 µM | TGI [54]: > 100 µM | TGI [55]: > 100 µM | TGI [56]: > 100 µM | TGI [57]: > 100 µM | TGI [58]: > 100 µM | TGI [59]: > 100 µM | TGI [60]: > 100 µM | TGI [61]: > 100 µM | TGI [62]: > 93.2 µM | TGI [63]: > 100 µM

CCc1nc2ccccc2c(=O)n1/N=C(\N=Nc1ccc(Cl)cc1)c1ccc(N(C)C)cc1
TGI [2]: 73.6 µM | TGI [3]: 66.9 µM | TGI [4]: > 100 µM | TGI [5]: > 100 µM | TGI [7]: 80.7 µM | TGI [8]: 69.9 µM | TGI [9]: 99.4 µM | TGI [10]: 80.7 µM | TGI [12]: 92.4 µM | TGI [15]: > 100 µM | TGI [16]: > 100 µM | TGI [17]: > 100 µM | TGI [21]: > 100 µM | TGI [22]: 92.2 µM | TGI [64]: > 100 µM | TGI [23]: > 100 µM | TGI [26]: 50 µM | TGI [27]: > 100 µM | TGI [28]: 79.3 µM | TGI [29]: 73.5 µM | TGI [32]: > 100 µM | TGI [35]: > 100 µM | TGI [36]: 64.6 µM | TGI [37]: 51.6 µM | TGI [38]: > 100 µM | TGI [39]: > 100 µM | TGI [40]: > 100 µM | TGI [46]: > 100 µM | TGI [65]: > 100 µM | TGI [48]: > 100 µM | TGI [49]: 60.1 µM | TGI [51]: > 100 µM | TGI [52]: > 100 µM | TGI [53]: 59 µM | TGI [58]: > 100 µM | TGI [60]: > 100 µM | TGI [61]: > 100 µM | TGI [66]: 47 µM | TGI [62]: > 100 µM

CCOC(=O)C(C(=O)c1ccccc1-c1ccccc1C(=O)O)=P(c1ccccc1)(c1ccccc1)c1ccccc1
TGI [2]: 42 µM | TGI [4]: > 100 µM | TGI [5]: > 100 µM | TGI [6]: 76.4 µM | TGI [7]: 78.9 µM | TGI [8]: 59.5 µM | TGI [10]: 50.2 µM | TGI [12]: 40 µM | TGI [14]: 33 µM | TGI [15]: 39 µM | TGI [16]: > 100 µM | TGI [17]: > 100 µM | TGI [19]: 67 µM | TGI [21]: > 100 µM | TGI [22]: 79 µM | TGI [64]: > 100 µM | TGI [23]: 40.8 µM | TGI [24]: 47.7 µM | TGI [25]: 47.3 µM | TGI [26]: 40.5 µM | TGI [27]: 35.3 µM | TGI [28]: > 100 µM | TGI [29]: 40.6 µM | TGI [30]: 88.8 µM | TGI [31]: 47.8 µM | TGI [32]: > 100 µM | TGI [33]: 92 µM | TGI [67]: 72.8 µM | TGI [35]: > 100 µM | TGI [36]: 29.6 µM | TGI [37]: 57.5 µM | TGI [38]: 36.8 µM | TGI [39]: 74.8 µM | TGI [40]: 33.3 µM | TGI [68]: 43.6 µM | TGI [45]: > 100 µM | TGI [48]: 88.8 µM | TGI [51]: > 100 µM | TGI [52]: > 100 µM | TGI [54]: 66.9 µM | TGI [55]: 85.1 µM | TGI [56]: 40.3 µM | TGI [57]: > 100 µM | TGI [58]: > 100 µM | TGI [60]: > 100 µM | TGI [61]: 77.1 µM | TGI [66]: 54.4 µM | TGI [62]: 73.1 µM | TGI [63]: 73.7 µM

O=C(CC(O)(c1ccccc1)c1ccc(Cl)cc1)NC(=O)c1ccccc1O (stereo not drawn)
TGI [2]: 52.6 µM | TGI [3]: 14.9 µM | TGI [4]: 32 µM | TGI [5]: 56.3 µM | TGI [6]: 32.6 µM | TGI [8]: 34.3 µM | TGI [9]: 55.4 µM | TGI [12]: 26.9 µM | TGI [14]: 21.3 µM | TGI [15]: 26.7 µM | TGI [16]: 61.3 µM | TGI [17]: > 100 µM | TGI [18]: 8.95 µM | TGI [19]: 27.4 µM | TGI [21]: 74.8 µM | TGI [22]: 46.7 µM | TGI [64]: 39 µM | TGI [23]: 23.3 µM | TGI [24]: 21.1 µM | TGI [25]: > 100 µM | TGI [26]: 25.6 µM | TGI [27]: 46.8 µM | TGI [28]: > 100 µM | TGI [29]: 27.5 µM | TGI [30]: 26.3 µM | TGI [31]: 40.8 µM | TGI [32]: 99 µM | TGI [33]: > 100 µM | TGI [67]: 82.8 µM | TGI [35]: > 100 µM | TGI [36]: 19.1 µM | TGI [37]: 25 µM | TGI [38]: 26.5 µM | TGI [39]: 37.5 µM | TGI [40]: > 100 µM | TGI [68]: > 100 µM | TGI [41]: 23.2 µM | TGI [43]: > 100 µM | TGI [44]: 21.9 µM | TGI [45]: 53 µM | TGI [46]: 8.97 µM | TGI [65]: > 100 µM | TGI [48]: 8.62 µM | TGI [49]: 6.75 µM | TGI [51]: 41.2 µM | TGI [52]: 68.2 µM | TGI [53]: 6.59 µM | TGI [54]: 70.6 µM | TGI [55]: 39.6 µM | TGI [56]: 22.1 µM | TGI [57]: 44.9 µM | TGI [58]: > 100 µM | TGI [60]: 27.9 µM | TGI [61]: 43.2 µM | TGI [66]: 31.5 µM | TGI [62]: 49 µM | TGI [63]: 29.8 µM

Reference: PubChem BioAssay (NCI)
